Measurements from paper PMC5840523, “Assessment of a pretomanid analogue library for African trypanosomiasis: Hit-to-lead studies on 6-substituted 2-nitro-6,7-dihydro-5H-imidazo[2,1-b][1,3]thiazine 8-oxides” (Bioorganic & Medicinal Chemistry Letters, 2018).
Values after ≈ are worked out from the molar mass of the structure shown. Where two headings read alike, the source gives them in different places. One block for each molecule: values may come before it.

Columns and labels:
T. b. brucei 427 [1] = test: T. b. brucei 427 growth inhibition (Scynexis); assay type: cell-based, Trypanosoma brucei brucei; settings: for Selectivity Index: L929 vs T. b. brucei; for IC50: Trypanosoma brucei, growth inhibition of T. b. brucei 427, mean ± SD
L929 mouse fibroblasts = test: Cytotoxicity toward L929 mouse fibroblasts (Scynexis); assay type: cell-based
Mouse liver S9 stability = assay type: in vitro ADME; settings: CD-1, mouse, mouse liver S9 subcellular fraction, half-life in mouse liver S9 fraction; read-out: Mouse S9 t1/2
[2] = Kinetic aqueous solubility in pH 7.4 PBS; assay type: physicochemical
Description: Table 1 Inhibitory potency, metabolic stability, aqueous solubility, and MDCK-MDR1 cell permeability for 15 screening hits against T. b. brucei. | column: Solubility ^c / (µg/mL)

[3] = Mouse pharmacokinetics (plasma, whole blood, brain); assay type: in vivo, male CD-1 mice; settings: male, CD-1, mouse; for bioavailability: po; for Vd: read-out: Vdss; for half-life: read-out: t1/2 (converted)
Protocol: In order to determine the suitability of the more permeable hits for in vivo efficacy studies, we first measured their aqueous solubilities, and their tendencies to metabolise, following a 1 h incubation with CD-1 mouse liver S9 subcellular fractions.[14] […] This led us to probe their in vivo pharmacokinetic (PK) profiles in mice, examining concentration levels in plasma, whole blood and brain tissue following both intravenous and oral administration (Table 2; for further experimental details, see the Supporting Information). […]
Mouse Pharmacokinetics. The in-life portion of PK testing was carried out by ViviSource Laboratories, Inc., Mass achusetts, USA, and PK samples were anal ysed by Sc ynexis, Inc.
Test compounds (9, 12, 17, and 19) w er e each administered as single doses to groups of 10 male CD-1 mice by bolus intravenous injection or oral gavage. Intravenous dosing (at a nominal dose of 2 mg/kg) emplo yed a solution vehicle comprising either 20% EtOH, 20% propylene gl ycol, and 30% PEG -400 in normal saline (for powders 9, 17, and 19) or 0.5% (hydrox yprop yl)meth ylcellulose, 0.4% Tween 80, 0.5% benz yl alcohol, and 20% DMSO i n deionised water (for oil 12). […]
in 0.5% methylcellulose, 0.08% Tween 80 in water ( ex cept fo r oil 12, where the formulation additionally contained 20% DMSO). […]

T. b. brucei 427 [4] = test: T. b. brucei growth inhibition (University of Antwerp); assay type: cell-based, Trypanosoma brucei brucei; settings: T. b. brucei 427, mean of 2 to 5 determinations, read-out: IC50 T. b. bruc
T. b. rhodesiense = T. b. rhodesiense growth inhibition (University of Antwerp); assay type: cell-based, Trypanosoma brucei rhodesiense; settings: mean of 2 to 5 determinations, read-out: IC50 T. b. rhod
Trypanosoma cruzi = test: T. cruzi growth inhibition (University of Antwerp); assay type: cell-based; settings: mean of 2 to 5 determinations
Leishmania infantum = test: L. infantum growth inhibition (University of Antwerp); assay type: cell-based; settings: mean of 2 to 5 determinations
[5] = test system: human lung fibroblasts (MRC-5 cells); test: Cytotoxicity toward MRC-5 cells (University of Antwerp); assay type: cell-based; settings: Homo sapiens, MRC5, cytotoxicity toward human lung fibroblasts
in vitro = settings: dog, MDCK-MDR1, Permeability Papp
[6] = Human liver microsomal stability; assay type: in vitro ADME; settings: pooled human liver microsomes
[7] = Mouse liver microsomal stability; assay type: in vitro ADME; settings: CD-1 mouse liver microsomes
[8] = brain, from dose normalised AUClast values, read-out: F (oral bioavailability)
[9] = plasma, from dose normalised AUClast values, read-out: F (oral bioavailability)
[10] = whole blood, from dose normalised AUClast values, read-out: F (oral bioavailability)
[11] = brain, intravenous, corrected doses 0.5, 1.1, 2.9, 2.0 mg/kg for 9, 12, 17, 19
[12] = brain, oral, corrected doses 62, 50, 78, 49 mg/kg for 9, 12, 17, 19
[13] = plasma, intravenous, corrected doses 0.5, 1.1, 2.9, 2.0 mg/kg for 9, 12, 17, 19
[14] = plasma, oral, corrected doses 62, 50, 78, 49 mg/kg for 9, 12, 17, 19
[15] = whole blood, intravenous, corrected doses 0.5, 1.1, 2.9, 2.0 mg/kg for 9, 12, 17, 19
[16] = whole blood, oral, corrected doses 62, 50, 78, 49 mg/kg for 9, 12, 17, 19
[17] = Trypanosoma brucei, RHODESIENSE
[18] = over the three sampling sites (plasma, whole blood, brain), read-out: oral bioavailability

Structure (SMILES): O=[N+]([O-])c1cn2c(n1)S(=O)(=O)CC(OCc1ccc(OC(F)(F)F)cc1)C2 (stereo not drawn) [Compound 19]
- Selectivity Index (T. b. brucei 427 [1]): >11
- weaker potency vs 12 (fold) (T. b. brucei 427 [1]; T. b. brucei): 5.6 fold
- IC50 (T. b. brucei 427 [1]): 0.9 ± 0.4 µg/mL (≈ 2.21 µM)
- IC50 (L929 mouse fibroblasts): > 10 µg/mL
- half-life (Mouse liver S9 stability): 4.97 h
- solubility [2]: 10 µg/mL (≈ 24.6 µM)
- bioavailability [3, 8]: 43%
- bioavailability [3, 9]: 42%
- bioavailability [3, 10]: 37%
- AUC(0-t) [3, 11]: 1770 ng·h/mL
- clearance [3, 11]: 8.5 mL/min/kg
- Vd [3, 11]: 9.1 L/kg
- half-life [3, 11]: 14 h
- AUC(0-t) [3, 12]: 18800 ng·h/mL
- Cmax [3, 12]: 2400 ng/mL
- Tmax [3, 12]: 4 h
- half-life [3, 12]: 3 h
- AUC(0-t) [3, 13]: 1800 ng·h/mL
- clearance [3, 13]: 16.7 mL/min/kg
- Vd [3, 13]: 3.6 L/kg
- half-life [3, 13]: 2.5 h
- AUC(0-t) [3, 14]: 18700 ng·h/mL
- Cmax [3, 14]: 2300 ng/mL
- Tmax [3, 14]: 2 h
- half-life [3, 14]: 2.7 h
- AUC(0-t) [3, 15]: 2600 ng·h/mL
- clearance [3, 15]: 11.5 mL/min/kg
- Vd [3, 15]: 2.8 L/kg
- half-life [3, 15]: 5.9 h
- AUC(0-t) [3, 16]: 23700 ng·h/mL
- Cmax [3, 16]: 3000 ng/mL
- Tmax [3, 16]: 2 h
- half-life [3, 16]: 3.3 h
- IC50 (T. b. brucei 427 [4]; Trypanosoma brucei): 1.1 µM
- IC50 (T. b. rhodesiense; [17]): 0.94 µM
- IC50 (Trypanosoma cruzi; Trypanosoma cruzi): 1.6 µM
- IC50 (Leishmania infantum; Leishmania infantum): > 64 µM
- IC50 [5]: > 64 µM
- Papp at 1 h, 3 µM (in vitro): 62.4 ×10⁻⁶ cm/s

Structure (SMILES): O=[N+]([O-])c1cn2c(n1)[S@@+]([O-])C[C@@H](OCc1ccc(OC(F)(F)F)cc1)C2 [Compound 25]
- IC50 (T. b. brucei 427 [1]): 2.8 ± 0.4 µg/mL (≈ 7.16 µM)
- IC50 (L929 mouse fibroblasts): > 10 µg/mL
- remaining at 1 h [6]: 93%
- remaining at 1 h [7]: 93%
- IC50 (T. b. brucei 427 [4]; Trypanosoma brucei): 5.6 µM
- IC50 (T. b. rhodesiense; [17]): 1.9 µM
- IC50 (Trypanosoma cruzi; Trypanosoma cruzi): 13 µM
- IC50 (Leishmania infantum; Leishmania infantum): > 64 µM
- IC50 [5]: > 64 µM

Structure (SMILES): O=[N+]([O-])c1cn2c(n1)[S+]([O-])CC(OCc1ccc(OC(F)(F)F)cc1)C2 (stereo not drawn) [Compound 12]
- Selectivity Index (T. b. brucei 427 [1]): >63
- IC50 (T. b. brucei 427 [1]): 0.16 ± 0.07 µg/mL (≈ 0.409 µM)
- IC50 (L929 mouse fibroblasts): > 10 µg/mL
- half-life (Mouse liver S9 stability): > 5.83 h
- solubility [2]: 39 µg/mL (≈ 99.7 µM)
- bioavailability [3, 8]: 55%
- bioavailability [3, 18]: 52 to 55%
- bioavailability [3, 9]: 55%
- bioavailability [3, 10]: 52%
- AUC(0-t) [3, 11]: 2850 ng·h/mL
- clearance [3, 11]: 6.67 mL/min/kg
- Vd [3, 11]: 1.3 L/kg
- half-life [3, 11]: 2.3 h
- AUC(0-t) [3, 12]: 71200 ng·h/mL
- Cmax [3, 12]: 14000 ng/mL
- Tmax [3, 12]: 4 h
- half-life [3, 12]: 6.9 h
- AUC(0-t) [3, 13]: 2090 ng·h/mL
- clearance [3, 13]: 8.67 mL/min/kg
- Vd [3, 13]: 1.6 L/kg
- half-life [3, 13]: 2.5 h
- AUC(0-t) [3, 14]: 51900 ng·h/mL
- Cmax [3, 14]: 9300 ng/mL
- Tmax [3, 14]: 4 h
- half-life [3, 14]: 6.9 h
- AUC(0-t) [3, 15]: 2700 ng·h/mL
- clearance [3, 15]: 6.5 mL/min/kg
- Vd [3, 15]: 1.7 L/kg
- half-life [3, 15]: 9.3 h
- AUC(0-t) [3, 16]: 63500 ng·h/mL
- Cmax [3, 16]: 8600 ng/mL
- Tmax [3, 16]: 4 h
- half-life [3, 16]: 5.8 h
- IC50 (T. b. brucei 427 [4]): 0.27 µM
- IC50 (T. b. rhodesiense): 0.25 µM
- IC50 (Trypanosoma cruzi): 1.5 µM
- IC50 (Leishmania infantum): 16 µM
- IC50 [5]: 60 µM
- Papp at 1 h, 3 µM (in vitro): 79.8 ×10⁻⁶ cm/s

Now from value to molecule, other results behind:

- half-life (Mouse liver S9 stability): 2.88 h
- solubility [2]: 5.4 µg/mL (≈ 13.1 µM)
- bioavailability ([3]; 0.5 mg/kg, plasma, from dose normalised AUClast values, read-out: F (oral bioavailability)): 1.4%
- bioavailability [3, 8]: 0.8%
- bioavailability [3, 18]: < 1.5%
- bioavailability [3, 10]: 0.8%
- AUC(0-t) [3, 11]: 304 ng·h/mL
- clearance [3, 11]: 25 mL/min/kg
- Vd [3, 11]: 1.2 L/kg
- half-life [3, 11]: 1.6 h
- AUC(0-t) [3, 12]: 290 ng·h/mL
- Cmax [3, 12]: 60 ng/mL
- Tmax [3, 12]: 2 h
- half-life [3, 12]: 3.2 h
- AUC(0-t) [3, 13]: 505 ng·h/mL
- clearance [3, 13]: 16.2 mL/min/kg
- Vd [3, 13]: 0.59 L/kg
- half-life [3, 13]: 0.43 h
- AUC(0-t) [3, 14]: 869 ng·h/mL
- Cmax [3, 14]: 200 ng/mL
- Tmax [3, 14]: 2 h
- half-life [3, 14]: 3.7 h
- AUC(0-t) [3, 15]: 489 ng·h/mL
- clearance [3, 15]: 14.5 mL/min/kg
- Vd [3, 15]: 0.33 L/kg
- half-life [3, 15]: 0.42 h
- AUC(0-t) [3, 16]: 494 ng·h/mL
- Cmax [3, 16]: 110 ng/mL
- Tmax [3, 16]: 2 h
- half-life [3, 16]: 5.3 h
- IC50 (Trypanosoma cruzi; Trypanosoma cruzi): 0.12 µM
- Papp at 1 h, 3 µM (in vitro): 77.1 ×10⁻⁶ cm/s
Structure (SMILES): O=[N+]([O-])c1cn2c(n1)[S+]([O-])CC(OCc1ccc(OCc3ccccc3)cc1)C2 (stereo not drawn) [Compound 9]
- Selectivity Index (T. b. brucei 427 [1]): >667
- IC50 (T. b. brucei 427 [1]): 0.015 ± 0.005 µg/mL (≈ 0.0363 µM)
- IC50 (L929 mouse fibroblasts): > 10 µg/mL
- IC50 (T. b. brucei 427 [4]; Trypanosoma brucei): 0.03 µM
- IC50 (T. b. rhodesiense; [17]): 0.027 µM
- IC50 (Leishmania infantum; Leishmania infantum): 3.4 µM
- IC50 [5]: 64 µM

- remaining at 1 h [6]: 88%
- remaining at 1 h [7]: 89%
- IC50 (Trypanosoma cruzi; Trypanosoma cruzi): 13 µM
Structure (SMILES): O=[N+]([O-])c1cn2c(n1)[S@+]([O-])C[C@H](OCc1ccc(OC(F)(F)F)cc1)C2 [Compound 27]
- IC50 (T. b. brucei 427 [1]): > 5 µg/mL
- IC50 (L929 mouse fibroblasts): > 10 µg/mL
- IC50 (T. b. brucei 427 [4]; Trypanosoma brucei): 16 µM
- IC50 (T. b. rhodesiense; [17]): 4.3 µM
- IC50 (Leishmania infantum; Leishmania infantum): 48 µM
- IC50 [5]: > 64 µM

- remaining at 1 h [6]: 91%
- remaining at 1 h [7]: 26%
- IC50 (Trypanosoma cruzi; Trypanosoma cruzi): 6.5 µM
Structure (SMILES): O=[N+]([O-])c1cn2c(n1)[S@@+]([O-])C[C@H](OCc1ccc(OC(F)(F)F)cc1)C2 [Compound 26]
- IC50 (T. b. brucei 427 [1]): > 5 µg/mL
- IC50 (L929 mouse fibroblasts): > 10 µg/mL
- IC50 (T. b. brucei 427 [4]; Trypanosoma brucei): 34 µM
- IC50 (T. b. rhodesiense; [17]): 7.3 µM
- IC50 (Leishmania infantum; Leishmania infantum): 41 µM
- IC50 [5]: > 64 µM
